This note sets out measurements from ChEMBL document CHEMBL5696441 (Nat Chem Biol, 2011).

Molecules are shown by their SMILES.

For test [1], the system named is Hepatocyte growth factor receptor (Homo sapiens), P08581 [Y1230C]. As to the kind of experiment: Inhibition of human MET Y1230C mutant assessed as residual activity at 1 uM using poly(Ala,Glu,Lys,Tyr)6:2:5:1 as substrate in presence of 33P-ATP by ProQinase assay relative to control.
For test [2], the species on record is Homo sapiens. As to the kind of experiment: Inhibition of human PKA assessed as residual activity at 1 uM using bio-4xCHKT as substrate in presence of 33P-ATP by ProQinase assay relative to control.
The target of test [3] is Proto-oncogene tyrosine-protein kinase receptor Ret (Homo sapiens) (UniProt P07949). As to the kind of experiment: Inhibition of RET (unknown origin) assessed as remaining activity at 1 uM by Kinome scan method relative to control.
The target in test [4] is Dual specificity protein kinase CLK2 (Homo sapiens) (UniProt P49760). As to the kind of experiment: Inhibition of CLK2 (unknown origin) assessed as remaining activity at 1 uM by Kinome scan method relative to control.
Test [5] has as its system Epidermal growth factor receptor (Homo sapiens), P00533 [L858R,T790M]. As to the kind of experiment: Inhibition of EGFR L858R/T790M mutant (unknown origin) assessed as remaining activity at 1 uM by Kinome scan method relative to control.
Test [6] is filed under the species Homo sapiens. As to the kind of experiment: Inhibition of human CDK1/CycA2 assessed as residual activity at 1 uM using RBER-CHKtide as substrate in presence of 33P-ATP by ProQinase assay relative to control.
The target in test [7] is Casein kinase II subunit alpha (Homo sapiens) (UniProt P68400). As to the kind of experiment: Inhibition of human CK2alpha1 assessed as residual activity at 1 uM using casein as substrate in presence of 33P-ATP by ProQinase assay relative to control.
Sequence of Casein kinase II subunit alpha (Homo sapiens) (P68400 whole entry, looked up): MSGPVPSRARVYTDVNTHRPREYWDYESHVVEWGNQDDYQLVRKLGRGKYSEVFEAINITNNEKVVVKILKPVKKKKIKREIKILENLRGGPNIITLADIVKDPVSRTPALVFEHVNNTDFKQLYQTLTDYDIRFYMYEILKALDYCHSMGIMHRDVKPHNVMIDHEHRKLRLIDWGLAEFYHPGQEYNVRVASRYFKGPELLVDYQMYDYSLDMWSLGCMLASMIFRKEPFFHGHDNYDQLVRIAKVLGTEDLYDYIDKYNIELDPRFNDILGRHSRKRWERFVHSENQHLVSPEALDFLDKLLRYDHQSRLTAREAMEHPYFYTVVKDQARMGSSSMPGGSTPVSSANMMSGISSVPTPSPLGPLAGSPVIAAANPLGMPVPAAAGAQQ
The target of test [8] is Ribosomal protein S6 kinase beta-1 (Homo sapiens) (UniProt P23443). As to the kind of experiment: Inhibition of human S6K1 assessed as residual activity at 1 uM using RBER-GSK3(14-27) as substrate in presence of 33P-ATP by ProQinase assay relative to control.
Sequence of Ribosomal protein S6 kinase beta-1 (Homo sapiens) (P23443 whole entry, looked up, canonical isoform): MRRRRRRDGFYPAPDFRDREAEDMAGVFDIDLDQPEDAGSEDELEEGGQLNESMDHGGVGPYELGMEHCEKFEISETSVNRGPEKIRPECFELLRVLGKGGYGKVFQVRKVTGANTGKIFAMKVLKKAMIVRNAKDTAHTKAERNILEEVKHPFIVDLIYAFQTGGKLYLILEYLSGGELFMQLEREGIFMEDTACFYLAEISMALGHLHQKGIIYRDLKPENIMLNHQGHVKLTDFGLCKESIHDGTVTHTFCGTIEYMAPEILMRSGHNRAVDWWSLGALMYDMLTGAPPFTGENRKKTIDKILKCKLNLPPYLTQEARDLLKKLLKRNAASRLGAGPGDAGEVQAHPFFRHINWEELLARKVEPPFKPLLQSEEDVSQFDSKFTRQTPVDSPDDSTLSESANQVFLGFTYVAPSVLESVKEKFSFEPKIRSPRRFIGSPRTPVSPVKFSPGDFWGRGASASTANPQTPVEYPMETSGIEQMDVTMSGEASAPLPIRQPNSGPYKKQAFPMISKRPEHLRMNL
Test [9] addresses Phosphorylase b kinase gamma catalytic chain, skeletal muscle/heart isoform (Homo sapiens) (UniProt Q16816). As to the kind of experiment: Inhibition of human PHKG1 assessed as residual activity at 1 uM using 3xChocktide-PKC as substrate in presence of 33P-ATP by ProQinase assay relative to control.
Test [10] addresses Focal adhesion kinase 1 (Homo sapiens) (UniProt Q05397). As to the kind of experiment: Inhibition of FAK (unknown origin) assessed as remaining activity at 1 uM by Kinome scan method relative to control.
For test [11], the target named is Non-receptor tyrosine-protein kinase TYK2 (Homo sapiens) (UniProt P29597). As to the kind of experiment: Inhibition of TYK2 JH2 domain (unknown origin) assessed as remaining activity at 1 uM by Kinome scan method relative to control.
Sequence of Non-receptor tyrosine-protein kinase TYK2 (Homo sapiens) (P29597 whole entry, the tested form may be a part): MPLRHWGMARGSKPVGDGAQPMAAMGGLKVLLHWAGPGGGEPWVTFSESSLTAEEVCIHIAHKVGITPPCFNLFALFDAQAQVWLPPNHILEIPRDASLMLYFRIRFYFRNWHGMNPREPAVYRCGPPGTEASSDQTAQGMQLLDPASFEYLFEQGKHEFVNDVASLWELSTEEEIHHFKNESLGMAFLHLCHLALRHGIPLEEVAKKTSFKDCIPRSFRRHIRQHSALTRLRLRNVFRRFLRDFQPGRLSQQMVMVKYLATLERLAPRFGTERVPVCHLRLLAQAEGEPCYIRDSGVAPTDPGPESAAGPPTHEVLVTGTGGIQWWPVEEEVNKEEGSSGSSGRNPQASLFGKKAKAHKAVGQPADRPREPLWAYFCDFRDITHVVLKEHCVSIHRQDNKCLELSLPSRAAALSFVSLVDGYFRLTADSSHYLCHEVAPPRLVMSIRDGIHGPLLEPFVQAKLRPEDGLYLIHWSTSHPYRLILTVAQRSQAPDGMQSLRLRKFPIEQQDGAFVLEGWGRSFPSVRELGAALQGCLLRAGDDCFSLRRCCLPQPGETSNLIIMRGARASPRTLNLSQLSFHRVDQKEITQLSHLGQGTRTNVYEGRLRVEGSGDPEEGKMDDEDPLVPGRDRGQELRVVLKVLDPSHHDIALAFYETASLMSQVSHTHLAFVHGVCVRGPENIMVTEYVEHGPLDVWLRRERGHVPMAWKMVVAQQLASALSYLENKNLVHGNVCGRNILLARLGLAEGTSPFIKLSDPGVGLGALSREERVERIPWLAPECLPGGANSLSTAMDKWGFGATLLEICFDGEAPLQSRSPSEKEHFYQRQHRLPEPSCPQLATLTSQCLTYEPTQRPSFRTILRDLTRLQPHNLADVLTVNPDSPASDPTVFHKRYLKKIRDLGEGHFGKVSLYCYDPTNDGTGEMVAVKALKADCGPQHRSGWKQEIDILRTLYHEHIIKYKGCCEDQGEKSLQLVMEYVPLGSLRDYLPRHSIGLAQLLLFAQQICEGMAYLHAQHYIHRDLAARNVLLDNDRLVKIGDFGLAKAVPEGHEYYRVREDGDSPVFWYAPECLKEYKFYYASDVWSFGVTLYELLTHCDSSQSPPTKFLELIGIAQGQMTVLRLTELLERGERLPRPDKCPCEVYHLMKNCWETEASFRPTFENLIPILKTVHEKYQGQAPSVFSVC
The target in test [12] is Serine/threonine-protein kinase WNK3 (Homo sapiens) (UniProt Q9BYP7). As to the kind of experiment: Inhibition of human WNK3 assessed as residual activity at 1 uM using RB-S6P as substrate in presence of 33P-ATP by ProQinase assay relative to control.
The subject of test [13] is Proto-oncogene tyrosine-protein kinase receptor Ret (Homo sapiens), P07949 [V804L]. As to the kind of experiment: Inhibition of human RET V804L mutant assessed as residual activity at 1 uM using polyEY as substrate in presence of 33P-ATP by ProQinase assay relative to control.
The target in test [14] is T1, TGF-beta receptor type-1 (Homo sapiens) (UniProt P36897).
T1 sequence (whole entry): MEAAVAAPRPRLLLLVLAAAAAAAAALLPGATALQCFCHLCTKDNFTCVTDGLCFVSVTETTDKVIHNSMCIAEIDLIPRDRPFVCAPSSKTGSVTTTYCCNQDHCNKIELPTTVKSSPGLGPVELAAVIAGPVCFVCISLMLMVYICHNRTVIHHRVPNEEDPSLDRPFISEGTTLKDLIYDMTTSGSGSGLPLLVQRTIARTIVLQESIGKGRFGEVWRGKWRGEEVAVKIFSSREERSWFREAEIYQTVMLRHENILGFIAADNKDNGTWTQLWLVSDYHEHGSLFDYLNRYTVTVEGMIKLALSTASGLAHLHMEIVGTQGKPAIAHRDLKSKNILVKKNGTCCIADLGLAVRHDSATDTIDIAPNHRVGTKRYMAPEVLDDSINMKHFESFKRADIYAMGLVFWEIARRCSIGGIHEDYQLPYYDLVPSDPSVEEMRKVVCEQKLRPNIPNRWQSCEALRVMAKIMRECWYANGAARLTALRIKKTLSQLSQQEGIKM
As to the kind of experiment: Inhibition of human TGFBR1 assessed as residual activity at 1 uM using RBER-GSK3(14-27) as substrate in presence of 33P-ATP by ProQinase assay relative to control.

Test [15] addresses SRSF protein kinase 1 (Homo sapiens) (UniProt Q96SB4). As to the kind of experiment: Inhibition of human SRPK1 assessed as residual activity at 1 uM using MBP as substrate in presence of 33P-ATP by ProQinase assay relative to control.
In test [16] the target is T2, Megakaryocyte-associated tyrosine-protein kinase (Homo sapiens) (UniProt P42679).
T2 sequence (whole entry): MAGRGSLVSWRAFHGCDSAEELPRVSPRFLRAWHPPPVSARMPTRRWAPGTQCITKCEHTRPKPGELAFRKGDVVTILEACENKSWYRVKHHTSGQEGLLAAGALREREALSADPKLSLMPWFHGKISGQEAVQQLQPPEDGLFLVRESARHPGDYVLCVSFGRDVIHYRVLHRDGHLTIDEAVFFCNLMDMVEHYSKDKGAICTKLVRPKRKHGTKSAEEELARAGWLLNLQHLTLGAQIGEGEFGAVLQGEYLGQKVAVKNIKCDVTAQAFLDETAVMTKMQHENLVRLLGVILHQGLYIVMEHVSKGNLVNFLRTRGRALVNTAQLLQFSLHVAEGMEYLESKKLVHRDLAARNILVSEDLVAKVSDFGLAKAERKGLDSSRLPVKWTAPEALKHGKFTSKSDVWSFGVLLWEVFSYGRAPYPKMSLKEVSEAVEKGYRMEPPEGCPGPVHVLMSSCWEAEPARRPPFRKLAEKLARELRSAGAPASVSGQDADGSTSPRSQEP
As to the kind of experiment: Inhibition of human MATK assessed as residual activity at 1 uM using polyEy as substrate in presence of 33P-ATP by ProQinase assay relative to control.

Test [17] deals with Serine/threonine-protein kinase SIK1 (Homo sapiens) (UniProt P57059). As to the kind of experiment: Inhibition of SIK (unknown origin) assessed as remaining activity at 1 uM by Kinome scan method relative to control.
Sequence of Serine/threonine-protein kinase SIK1 (Homo sapiens) (P57059 whole entry, the tested form may be a part): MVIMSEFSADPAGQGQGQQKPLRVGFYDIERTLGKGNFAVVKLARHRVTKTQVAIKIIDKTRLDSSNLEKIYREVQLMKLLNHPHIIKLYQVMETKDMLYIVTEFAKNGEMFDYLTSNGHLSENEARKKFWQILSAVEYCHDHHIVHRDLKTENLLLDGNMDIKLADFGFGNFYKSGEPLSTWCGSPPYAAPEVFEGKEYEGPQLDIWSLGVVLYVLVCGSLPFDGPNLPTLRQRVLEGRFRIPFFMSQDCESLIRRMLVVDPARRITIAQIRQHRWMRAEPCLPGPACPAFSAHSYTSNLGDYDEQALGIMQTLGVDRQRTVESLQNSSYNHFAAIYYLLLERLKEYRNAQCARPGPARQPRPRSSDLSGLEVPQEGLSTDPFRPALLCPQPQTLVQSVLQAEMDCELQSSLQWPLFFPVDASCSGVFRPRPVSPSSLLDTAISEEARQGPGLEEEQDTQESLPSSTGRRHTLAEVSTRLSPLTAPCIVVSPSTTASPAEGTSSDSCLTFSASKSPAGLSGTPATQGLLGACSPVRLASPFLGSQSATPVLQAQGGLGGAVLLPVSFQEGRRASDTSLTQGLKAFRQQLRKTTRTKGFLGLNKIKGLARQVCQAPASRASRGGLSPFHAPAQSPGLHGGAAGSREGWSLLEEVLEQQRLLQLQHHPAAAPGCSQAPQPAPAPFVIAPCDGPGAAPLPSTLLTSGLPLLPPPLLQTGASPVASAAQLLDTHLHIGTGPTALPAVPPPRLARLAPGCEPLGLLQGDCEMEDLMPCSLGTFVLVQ
Test [18] addresses PAS domain-containing serine/threonine-protein kinase (Homo sapiens) (UniProt Q96RG2). As to the kind of experiment: Inhibition of human PASK assessed as residual activity at 1 uM using RBER-CHKtide as substrate in presence of 33P-ATP by ProQinase assay relative to control.
Test [19] deals with CDK3/Cyclin E (Homo sapiens) (UniProt P24864+Q00526). As to the kind of experiment: Inhibition of human CDK3/CyclinE1 assessed as residual activity at 1 uM using RBER-CHKtide as substrate in presence of 33P-ATP by ProQinase assay relative to control. The test is classed as protein-complex assay.
Sequence of CDK3/Cyclin E (Homo sapiens) (P24864 whole entry, looked up): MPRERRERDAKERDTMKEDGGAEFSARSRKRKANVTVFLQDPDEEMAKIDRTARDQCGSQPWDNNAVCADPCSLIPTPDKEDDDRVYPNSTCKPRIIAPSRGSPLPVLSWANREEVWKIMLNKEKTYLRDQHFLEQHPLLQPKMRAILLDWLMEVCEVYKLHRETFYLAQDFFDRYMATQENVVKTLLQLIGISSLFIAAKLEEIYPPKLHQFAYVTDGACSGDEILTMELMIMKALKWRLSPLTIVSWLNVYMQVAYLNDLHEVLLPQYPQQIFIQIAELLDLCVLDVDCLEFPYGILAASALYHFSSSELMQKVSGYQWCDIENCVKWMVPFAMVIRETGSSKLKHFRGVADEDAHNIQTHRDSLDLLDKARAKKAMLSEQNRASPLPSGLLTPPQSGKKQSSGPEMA
Sequence of CDK3/Cyclin E (Homo sapiens) (Q00526 whole entry, looked up): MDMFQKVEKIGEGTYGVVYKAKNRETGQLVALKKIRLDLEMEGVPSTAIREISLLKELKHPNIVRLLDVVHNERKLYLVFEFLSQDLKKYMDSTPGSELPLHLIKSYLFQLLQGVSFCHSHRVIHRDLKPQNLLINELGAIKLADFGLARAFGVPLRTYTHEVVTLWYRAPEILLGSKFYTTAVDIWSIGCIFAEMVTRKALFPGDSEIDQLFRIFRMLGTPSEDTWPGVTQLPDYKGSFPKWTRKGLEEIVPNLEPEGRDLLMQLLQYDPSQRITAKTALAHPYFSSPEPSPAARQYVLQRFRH

Sequence of Phosphorylase b kinase gamma catalytic chain, skeletal muscle/heart isoform (Homo sapiens) (Q16816 whole entry, looked up, canonical isoform): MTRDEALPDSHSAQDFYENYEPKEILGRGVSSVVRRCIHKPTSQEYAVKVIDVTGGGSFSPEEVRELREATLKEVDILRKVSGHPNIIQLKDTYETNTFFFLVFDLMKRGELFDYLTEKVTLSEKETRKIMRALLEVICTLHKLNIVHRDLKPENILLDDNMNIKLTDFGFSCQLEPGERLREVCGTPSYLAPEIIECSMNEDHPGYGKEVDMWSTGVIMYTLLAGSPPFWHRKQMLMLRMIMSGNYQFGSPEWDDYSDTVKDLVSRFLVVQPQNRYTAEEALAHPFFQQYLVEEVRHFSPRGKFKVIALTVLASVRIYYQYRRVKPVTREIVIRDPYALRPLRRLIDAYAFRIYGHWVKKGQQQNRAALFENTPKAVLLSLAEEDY
Sequence of SRSF protein kinase 1 (Homo sapiens) (Q96SB4 whole entry): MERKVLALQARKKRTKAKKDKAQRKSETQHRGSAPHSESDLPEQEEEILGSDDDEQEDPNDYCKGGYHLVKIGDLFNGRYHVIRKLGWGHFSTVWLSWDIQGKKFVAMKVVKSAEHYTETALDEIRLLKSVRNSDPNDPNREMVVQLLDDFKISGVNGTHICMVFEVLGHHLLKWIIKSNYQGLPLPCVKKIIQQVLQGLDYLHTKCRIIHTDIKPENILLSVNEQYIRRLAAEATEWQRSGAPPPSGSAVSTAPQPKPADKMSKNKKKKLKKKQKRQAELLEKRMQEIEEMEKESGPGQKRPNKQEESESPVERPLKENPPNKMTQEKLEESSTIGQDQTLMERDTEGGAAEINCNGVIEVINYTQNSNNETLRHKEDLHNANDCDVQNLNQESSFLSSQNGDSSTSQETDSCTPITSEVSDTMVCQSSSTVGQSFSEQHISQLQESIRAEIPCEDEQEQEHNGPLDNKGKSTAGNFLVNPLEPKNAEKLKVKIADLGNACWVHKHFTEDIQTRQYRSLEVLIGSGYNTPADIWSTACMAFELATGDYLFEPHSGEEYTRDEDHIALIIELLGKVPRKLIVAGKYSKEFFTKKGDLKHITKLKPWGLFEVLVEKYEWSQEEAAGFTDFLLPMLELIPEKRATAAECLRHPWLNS

Take `O=C1c2ccc(Nc3ccc(F)cc3F)cc2CCc2ccc(OC[C@H](O)CO)cc21` [Skepinone-L]: the Activity was found to be 97% in test [1]; 94% in the test filed under Homo sapiens [2]; 97% in [3]; 90% in test [4]; 100% in test [5]; 98% in the test filed under Homo sapiens [6]. Besides, the Activity in test [7] was found to be 95%; in test [8], 85%; in [9], 93%; in test [10], 100%; in test [11], 100%; in test [12] it was 100%. The Activity came to 115% in [13]; 93% in test [14]; 100% in test [15]; 111% in [16]; 100% in test [17]; 88% in [18]. In addition, the Activity in test [19] came out at 96%.
